Measured values reported in ChEMBL document CHEMBL5226326, “Discovery of 1-Benzoyl 4-Phenoxypiperidines as Small-Molecule Inhibitors of the β-Catenin/B-Cell Lymphoma 9 Protein-Protein Interaction” (J Med Chem, 2021).

Columns and labels:
MDA-MB-468 = assay: Antiproliferative activity against beta-catenin signalling overexpressing human MDA-MB-468 cells assessed as reduction in cell growth incubated for 72 hrs by MTS assay; format: functional, cell-based; settings: MDA-MB-468, 72 h
[1] = Cytotoxicity against human MCF-10A cells assessed as reduction in cell growth incubated for 72 hrs by MTS assay; format: toxicity, cell-based
[2] = Inhibition of Wnt/beta-catenin D145A/E155A mutant transactivation signalling in human HEK293 cells transfected with TOPFlash reporter gene incubated for 24 hrs by TOPFlash luciferase assay; format: cell-based; settings: HEK293, 24 h
HCT-116 = assay: Antiproliferative activity against beta-catenin signalling overexpressing human HCT-116 cells assessed as reduction in cell growth incubated for 72 hrs by MTS assay; format: functional, cell-based; settings: HCT-116, 72 h
[3] = target: T1, beta-catenin-B-cell lymphoma 9 protein complex (Homo sapiens, UniProt P35222); assay: Inhibition of full length beta-catenin (1 to 781 residues) (unknown origin) expressed in Escherichia coli BL21 (DE3)/N-terminal biotinylated human BCL9 HD2 (350 to 375 residues) protein-protein interaction incubated for 1 hr by Alphascreen assay
T1 sequence (P35222 whole entry): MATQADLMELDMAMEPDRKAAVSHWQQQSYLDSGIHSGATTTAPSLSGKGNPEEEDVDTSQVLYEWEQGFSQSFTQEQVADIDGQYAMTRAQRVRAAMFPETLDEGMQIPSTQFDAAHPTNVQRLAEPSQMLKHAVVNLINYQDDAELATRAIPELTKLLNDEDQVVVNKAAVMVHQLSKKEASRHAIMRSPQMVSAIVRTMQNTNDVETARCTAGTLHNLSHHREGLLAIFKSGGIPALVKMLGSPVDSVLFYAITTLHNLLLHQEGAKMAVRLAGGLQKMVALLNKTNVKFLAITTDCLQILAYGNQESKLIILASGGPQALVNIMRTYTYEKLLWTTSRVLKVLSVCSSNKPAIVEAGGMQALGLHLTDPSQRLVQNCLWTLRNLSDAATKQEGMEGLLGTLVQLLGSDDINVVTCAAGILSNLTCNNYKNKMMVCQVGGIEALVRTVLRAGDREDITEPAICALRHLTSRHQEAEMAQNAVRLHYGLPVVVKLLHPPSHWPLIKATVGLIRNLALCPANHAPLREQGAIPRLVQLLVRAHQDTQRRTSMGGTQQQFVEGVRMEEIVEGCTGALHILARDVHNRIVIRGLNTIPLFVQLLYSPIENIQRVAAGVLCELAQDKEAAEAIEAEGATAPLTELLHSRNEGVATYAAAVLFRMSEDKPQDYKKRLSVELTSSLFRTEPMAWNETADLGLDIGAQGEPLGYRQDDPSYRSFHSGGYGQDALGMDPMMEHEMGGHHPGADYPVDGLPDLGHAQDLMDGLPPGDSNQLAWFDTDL
T1 sequence (O00512 whole entry): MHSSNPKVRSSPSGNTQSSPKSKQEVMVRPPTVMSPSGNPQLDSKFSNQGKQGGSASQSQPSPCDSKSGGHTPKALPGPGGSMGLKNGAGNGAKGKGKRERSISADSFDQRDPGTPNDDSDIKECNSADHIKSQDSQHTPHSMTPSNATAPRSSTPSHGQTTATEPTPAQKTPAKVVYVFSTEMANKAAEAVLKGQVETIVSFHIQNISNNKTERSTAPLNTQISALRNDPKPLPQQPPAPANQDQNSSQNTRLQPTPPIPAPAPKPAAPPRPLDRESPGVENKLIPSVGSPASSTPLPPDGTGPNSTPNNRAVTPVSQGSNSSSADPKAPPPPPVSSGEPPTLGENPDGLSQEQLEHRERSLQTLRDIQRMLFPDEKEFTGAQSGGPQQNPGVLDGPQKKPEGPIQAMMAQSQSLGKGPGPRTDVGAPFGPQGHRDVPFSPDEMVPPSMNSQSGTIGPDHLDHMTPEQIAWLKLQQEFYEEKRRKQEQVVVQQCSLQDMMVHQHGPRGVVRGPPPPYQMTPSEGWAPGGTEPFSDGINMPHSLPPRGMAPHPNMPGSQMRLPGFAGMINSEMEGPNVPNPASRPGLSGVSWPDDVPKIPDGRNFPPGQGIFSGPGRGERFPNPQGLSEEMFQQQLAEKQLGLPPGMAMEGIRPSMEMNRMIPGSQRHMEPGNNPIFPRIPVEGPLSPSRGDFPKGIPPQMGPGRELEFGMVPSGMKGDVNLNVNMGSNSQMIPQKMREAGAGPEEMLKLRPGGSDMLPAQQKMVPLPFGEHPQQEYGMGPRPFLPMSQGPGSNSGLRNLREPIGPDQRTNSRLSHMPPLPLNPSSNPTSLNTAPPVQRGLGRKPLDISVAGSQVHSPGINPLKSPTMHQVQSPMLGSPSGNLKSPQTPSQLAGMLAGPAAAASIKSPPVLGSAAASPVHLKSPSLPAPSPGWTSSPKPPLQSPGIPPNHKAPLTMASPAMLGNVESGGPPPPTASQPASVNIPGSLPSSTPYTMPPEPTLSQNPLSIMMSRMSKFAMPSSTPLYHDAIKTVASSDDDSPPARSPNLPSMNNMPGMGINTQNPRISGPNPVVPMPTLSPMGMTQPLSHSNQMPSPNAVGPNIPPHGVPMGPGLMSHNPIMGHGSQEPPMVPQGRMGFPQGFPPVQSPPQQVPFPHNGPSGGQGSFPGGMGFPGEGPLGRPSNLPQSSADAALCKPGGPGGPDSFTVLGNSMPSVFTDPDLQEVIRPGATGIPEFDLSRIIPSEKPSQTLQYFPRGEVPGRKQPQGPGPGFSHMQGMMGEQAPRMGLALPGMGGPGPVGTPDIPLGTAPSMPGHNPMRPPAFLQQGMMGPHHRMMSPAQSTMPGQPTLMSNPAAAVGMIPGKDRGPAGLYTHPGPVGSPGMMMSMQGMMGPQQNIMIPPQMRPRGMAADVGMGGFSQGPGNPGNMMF

[4] = Inhibition of Wnt/beta-catenin transactivation signalling in human SW480 cells transfected with renilla luciferase and TOPFlash reporter gene incubated for 24 hrs by dual-luciferase assay; format: cell-based; settings: SW480, 24 h
[5] = Inhibition of full length beta-catenin D145A mutant/N-terminal biotinylated human BCL9 HD2 (350 to 375 residues) protein-protein interaction in human SW480 cells incubated for 1 hr by Alphascreen assay; format: cell-based
[6] = target: T1, beta-catenin-B-cell lymphoma 9 protein complex; assay: Inhibition of full length beta-catenin (1 to 781 residues) (unknown origin) expressed in Escherichia coli BL21 (DE3)/N-terminal biotinylated human BCL9 HD2 (350 to 375 residues) protein-protein interaction assessed as inhibition constant incubated for 1 hr by Alphascreen assay

## CC(C)(C)C1CCC(c2cc(C(=O)N3CCC(Oc4cc(N5CCNCC5)ccc4C#N)CC3)ccc2O[C@H]2CCNC2)CC1.Cl.Cl (mixture of isomers; cis)
MDA-MB-468
  IC50: 3.9 µM
[1]
  IC50 at 72 h: 18 µM
[2]
  IC50: 24 µM
HCT-116
  IC50: 9.7 µM
[3]
  IC50: 1.2 µM
[4]
  IC50: 2.6 µM
[5]
  Ki: 6.9 µM
[6]
  Ki: 0.96 µM
